Tests used:
[1] = target: mouse P23H-opsin mutant (Mus musculus, UniProt P15409, P23H); assay: β-Gal fragment complementation assay: rescue of P23H opsin transport from ER to plasma membrane, U2OS(PLC-EA/P23H-PK) cells; type: cell-based; details: for β-Gal fragment complementation assay Activity score (%) Max (Exp) / β-Gal fragment complementation assay Activity score (%) Max (fit) / Efficacy: 24 h, 5 µM 9-cis-retinal = 100%; for β-Gal fragment complementation assay Activity score (%) Max (Exp): experimental maximum; for β-Gal fragment complementation assay Activity score (%) Max (fit) / Efficacy: from curve fitting; for EC50: 24 h preincubation, activity standardized to 5 µM 9-cis-retinal as 100%, Hill fit, read-out: β-Gal fragment complementation assay Activity score (%) EC50
Description: U2OS(PLC-EA/P23H-PK) cells. A U2OS stable cell line was generated by DiscoveRx, Inc. (Fremont, CA, USA) for the β-Gal fragment complementation assay used in the small-molecule HTS for rescue of P23H-opsin transport. U2OS cells that continually express P23H-PK and PLC-EA fusion proteins were generated. Briefly, this small subunit of β-Gal (PK fragment) was fused to the C-terminal of the mouse P23H-opsin mutant, while the large EA fragment, a subunit of β-Gal, was fused with PLC, a plasma membrane-anchored peptide. Both constructs were subcloned by DicoveRx, Inc. and transferred into U2OS cells by viral infections. Positive clones were selected under treatment with hygromycin and geneticin.
Briefly, U2OS(PLC-EA /P23H-PK) cells were suspended in assay medium at 3 × 10^5 cells mL^−1. The cell suspension was dispensed into 384-well plates (Greiner Bio-one, Monroe, NC, USA) at 20 µL per well, with a Multidrop dispenser (Thermo Scientific, Waltham, MA, USA). Plates with cells then were centrifuged at 200×g for 15 s before incubation at 37 °C with 5% CO2. Plates were removed 24 h later for treatment with tested compounds. A total of 248 plates containing 79,080 compounds from three small-molecule libraries were paired with an equal number of assay plates with cultured cells. Owing to a limited capacity, these plates were assayed in seven batches. An average of 56.3 nL of 10 mM compound in DMSO was dispensed into each well from column 3 to 22 of paired assay plates using a 50 nL 384-pintool system, such that the final concentration of each compound was 22.52 µM on average. […] Each assay plate was shaken for 5 s before further incubation at 37 °C with 5% CO2. After 24 h, assay plates were removed, and each well was incubated with 25 µL of 1× Gal-Screen assay buffer (1:24 substrate-buffer ratio). Assay plates were incubated in the dark for 60–90 min, and luminescence was read from each assay plate with an Envision microplate reader (PerkinElmer) during a 0.1 s per well integration time. The mean and s.d. of readouts in column 2 of each plate were calculated as Mean0% and SD0%, whereas the average and s.d. of readouts in column 23 were calculated as Mean100% and SD100%. Eq. 1: Activity scores (%) = (RLUcp − Mean0%)/(Mean100% − Mean0%) × 100%, where RLUcp is the relative luminescence unit derived for cells treated with a compound. Eq. 2: Z′-factor = 1–3 × (SD0% + SD100%)/(Mean100% − Mean0%)[32]; Eq. 3: signal-to-background (S/B) ratio = Mean100%/Mean0%. Activities of all tested compounds were registered with their compound ID by GeneData Screener (Genedata, Basel, Switzerland) and Pipeline Pilot software (Accelrys, San Diego, CA, USA). Hits, cherry-picked from a separate stock dose-dependent activity test, were selected with an activity score cutoff at 20%. Activity of each hit was tested again with the β-Gal fragment complementation assay in a 10-dose series with each dose tested in triplicate. The 10 doses tested were 80, 40, 20, 10, 5, 2.5, 1.25, 0.625, 0.313, and 0.156 µM. Dose-dependent curves of each hit compound were fitted with GeneData and Origin software.
Detailed synthetic steps are described in Supplementary Note and Supplementary Fig. 9. […] YC-002-YC-021 were purchased from commercial vendors including Enamine LLC (Monmouth Jct., NJ, USA), Matrix Scientific (Columbia, SC, USA) and Tokyo Chemical Industry Co., Ltd. (Portland, OR, USA). […] Activities of YC compounds were tested with the β-Gal fragment complementation assay, as described in a prior section. All YC compounds were tested at 10 doses, each in triplicate: 80, 40, 20, 10, 5, 2.5, 1.25, 0.625, 0.313, and 0.156 µM.

[2] = target: T1, mouse P23H opsin (Mus musculus, UniProt P15409, P23H); assay: High-content imaging analysis of P23H opsin immunostaining in NIH3T3-(P23H opsin/GFP) cells; type: cell-based; details: ratio of P23H rod opsin fluorescence on plasma membrane to whole cell; for EC50: read-out: Immunostaining HCS MEM-Total ratio EC50
T1 construct: expressed in transfected cells
Description: To characterize the effect of active compounds on the localization of P23H-mutant opsin in mammalian cells, an image-based assay was used with cells immunostained for WT or P23H-mutant opsin protein[18]. Briefly, NIH3T3-(P23H opsin/GFP) or NIH3T3-(WT-opsin/GFP) cells were seeded at 5000 cells per well in a 384-well cell-carrier plate (PerkinElmer) and incubated at 37 °C with 5% CO2 for 2 h. Cells were treated with compounds as described for the β-Gal fragment complementation assay and incubated in assay medium for 24 h. The assay medium then was aspirated, and cells were fixed with 4% paraformaldehyde at 20 µL per well for 20 min at RT. Cells were immunostained in one of two ways: cell membranes were either permeabilized with 0.1% Triton X-100 for 15 min or left intact and then were incubated with 10% goat serum (Life Technologies). To detect opsin on the cell plasma membrane only, intact cells were immunostained with 20 µL per well of 20 µg mL^−1 B6-30 anti-rhodopsin antibody that recognizes the N-terminal epitope on the extracellular side of rhodopsin. To detect total opsin, cells were permeabilized with Triton X-100 and immunostained with 50 µg mL^−1 1D4 anti-rhodopsin antibody specific for the C-terminal epitope on the intracellular side of rhodopsin. Opsin immunostaining was visualized by incubating cells with 5 µg mL^−1 Cy3-conjugated goat anti-mouse IgG antibody. Three washes with phosphate-buffered saline (PBS: 10 mM Na2HPO4, 1.8 mM KH2PO4, pH 7.4, 137 mM NaCl, and 2.7 mM KCl) were performed between each step of incubation with antibody. In the last wash with PBS, DAPI was added to each well at 300 nM. Fluorescence images were obtained with the Operetta High Content Imaging System (PerkinElmer) using a ×20 long objective. Five fields were taken of each well for cell images using three channels for fluorescence: GFP (100 ms), Cy3 (300 ms), and DAPI (50 ms). Images were analyzed with Acapella software from the Columbus data storage and analysis system (PerkinElmer)[18]. For cells immunostained with opsin on the non-permeabilized cell membrane only, an average of total fluorescence intensity of Cy3 per cell was used to quantify opsin in each well of the 384-well plate. For cells immunostained with opsin in permeabilized whole cells, an average ratio of Cy3 intensity on the cell plasma membrane (PM) to that of the entire cell (opsin ratio PM-to-total) was calculated for each well of a 384-well plate to quantify opsin transport to the plasma membrane. The plasma membrane was defined within ± 5% of the cell border.

[3] = target: T2, P23H opsin (Mus musculus, UniProt P15409, P23H); assay: Immunoblot of P23H opsin glycosylation in NIH3T3 cell lysates; type: cell-based; set-up: key to Improved glycosylation: n = no; y = yes; details: P23H opsin
T2 construct: expressed in transfected cells
Description: NIH3T3-(P23H opsin/GFP) or NIH3T3-(WT-opsin/GFP) cells were seeded in a 48-well plate (Corning Costar) at 3.2 × 10^5 cells per well and incubated at 37 °C with 5% CO2 for 2 h. One hundred-µL of assay medium containing a compound at 5× its final concentration was added to each well. The plate was gently shaken for 5 s before further incubation at 37 °C with 5% CO2 for 24 h. The assay medium then was aspirated, and cells were lysed with 100 µL per well PBS containing 0.1% Triton X-100 and complete protease inhibitor cocktail (Roche, Basel, Switzerland) followed by sonication for 3 s. Protein concentrations were determined with the Bradford assay. For PNGaseF catalyzed deglycosylation, 3 µL of PNGaseF (1500 U, NEB) was added to the cell lysate and the mixture was incubated at room temperature for 1 h before immunoblotting. For NIH3T3-(P23H opsin/GFP) cells, 15 µg of total protein were loaded per well onto an SDS-polyacrylamide gel; whereas for NIH3T3-(WT-opsin/GFP) cells, 5 µg of total protein was loaded per well. Opsin protein was immunostained with 0.2 μg mL^−1 horseradish peroxidase-conjugated 1D4 anti-rhodopsin antibody. Band intensities were measured with ImageJ software (http://imagej.nih.gov/ij/; National the Institutes of Health, Bethesda, MD, USA) and normalized to a glyceraldehyde 3-phosphate dehydrogenase (GAPDH) loading control. Full scans of immunoblotted membranes are shown in Supplementary Fig. 8.

[4] = target: bovine isorhodopsin (rod opsin regenerated with 9-cis-retinal), photoactivated (bovine) (UniProt P02699)
Chain of bovine isorhodopsin (rod opsin regenerated with 9-cis-retinal), photoactivated (bovine) (P02699 whole entry): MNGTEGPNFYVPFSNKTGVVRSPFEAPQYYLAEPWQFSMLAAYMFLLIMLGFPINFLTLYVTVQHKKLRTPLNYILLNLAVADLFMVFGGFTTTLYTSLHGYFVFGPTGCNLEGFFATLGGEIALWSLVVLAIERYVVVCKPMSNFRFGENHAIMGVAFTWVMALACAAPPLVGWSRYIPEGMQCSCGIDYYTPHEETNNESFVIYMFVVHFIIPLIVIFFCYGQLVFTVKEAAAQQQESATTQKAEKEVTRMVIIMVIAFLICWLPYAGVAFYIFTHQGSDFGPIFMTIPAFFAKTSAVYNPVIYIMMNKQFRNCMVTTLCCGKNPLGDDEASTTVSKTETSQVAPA

[5] = target: bovine rod opsin in ROS disc membranes (bovine) (UniProt P02699)
Chain of bovine rod opsin in ROS disc membranes (bovine) (P02699 whole entry): as above

Chain of Gt (P04695 whole entry, looked up): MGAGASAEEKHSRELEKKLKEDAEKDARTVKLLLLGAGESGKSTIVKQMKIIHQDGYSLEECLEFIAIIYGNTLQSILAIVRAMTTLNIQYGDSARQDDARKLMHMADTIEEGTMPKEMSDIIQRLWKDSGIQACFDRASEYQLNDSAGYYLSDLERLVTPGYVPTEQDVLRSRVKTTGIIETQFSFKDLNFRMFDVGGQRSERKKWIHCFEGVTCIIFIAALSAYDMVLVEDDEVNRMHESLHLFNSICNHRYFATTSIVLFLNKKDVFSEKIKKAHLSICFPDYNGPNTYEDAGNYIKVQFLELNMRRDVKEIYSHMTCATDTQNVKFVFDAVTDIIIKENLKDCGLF

| Compound | β-Gal fragment complementation assay Activity score (%) Max (Exp) [1] | β-Gal fragment complementation assay Activity score (%) Max (fit) / Efficacy [1] | EC50 [1] | Immunostaining HCS MEM-Total ratio Max (fit) [2] | EC50 [2] | Improved glycosylation [3] | initial rate of Gt activation upon illumination (intrinsic Gtα fluorescence after addition of 300 µM GTPγS), isorhodopsin regenerated with 40 µM 9-cis-retinal alone [4] | initial rate of Gt activation upon illumination (intrinsic Gtα fluorescence after addition of 300 µM GTPγS), isorhodopsin regenerated with 40 µM 9-cis-retinal and 40 µM YC-001 together [4] | initial rate of Gt activation (intrinsic Gtα fluorescence after addition of 300 µM GTPγS), opsin membranes treated with 40 µM YC-001 [5] | initial rate of Gt activation (intrinsic Gtα fluorescence after addition of 300 µM GTPγS), opsin membranes treated with 40 µM YC-014 [5] | initial rate of Gt activation (intrinsic Gtα fluorescence after addition of 300 µM GTPγS), opsin membranes treated with DMSO [5] |
| --- | --- | --- | --- | --- | --- | --- | --- | --- | --- | --- | --- |
| O=C(NCCn1ncc2c(NCc3ccco3)ncnc21)c1cc(-c2ccccc2)on1 [Compound F2902-1134] | 23.1% | 31.5% | 21.6 µM | 0.031 | 4.15 µM | n |  |  |  |  |  |
| COCCNC(=O)c1sc2c(cnc3ccc(OC)cc32)c1-c1ccccc1 [Compound F3382-5924] |  | 155% | 28.6 µM | 0.046 | 2.42 µM | y |  |  |  |  |  |
| O=C(Cn1c2c(c(=O)n(C3CCCCC3)c1=O)CCC2)Nc1cccc(F)c1 [Compound F5111-0031] | 60.4% | 165% | 54.3 µM | 0.025 | 6.76 µM | y |  |  |  |  |  |
| O=C(NCCCOc1cccc2cccnc12)c1cc(-c2ccccc2)on1 [Compound F5875-0200] | 31.8% | 51.6% | 25 µM | 0.041 | 6.2 µM | n |  |  |  |  |  |
| Gt (from UniProt P04695 1-350) (complex) |  |  |  |  |  |  | -4.6 | -4.9 | -6.1 | -5.7 | -5.3 |

Other lines, results leading:

| β-Gal fragment complementation assay Activity score (%) Max (Exp) [1] | β-Gal fragment complementation assay Activity score (%) Max (fit) / Efficacy [1] | EC50 [1] | Immunostaining HCS MEM-Total ratio Max (fit) [2] | EC50 [2] | Improved glycosylation [3] | initial rate of Gt activation upon illumination (intrinsic Gtα fluorescence after addition of 300 µM GTPγS), isorhodopsin regenerated with 40 µM 9-cis-retinal alone [4] | initial rate of Gt activation upon illumination (intrinsic Gtα fluorescence after addition of 300 µM GTPγS), isorhodopsin regenerated with 40 µM 9-cis-retinal and 40 µM YC-001 together [4] | initial rate of Gt activation (intrinsic Gtα fluorescence after addition of 300 µM GTPγS), opsin membranes treated with 40 µM YC-001 [5] | initial rate of Gt activation (intrinsic Gtα fluorescence after addition of 300 µM GTPγS), opsin membranes treated with 40 µM YC-014 [5] | initial rate of Gt activation (intrinsic Gtα fluorescence after addition of 300 µM GTPγS), opsin membranes treated with DMSO [5] | Compound |
| --- | --- | --- | --- | --- | --- | --- | --- | --- | --- | --- | --- |
| 244% | 230% | 5.93 µM | 0.010 | 0.64 µM | y |  |  |  |  |  | O=C(C1CC1)N(CCn1cccn1)c1nc2c(Cl)cccc2s1 [Compound F5581-0240] |
| 32.8% | 37.3% | 8.38 µM | 0.021 | 1.33 µM | n |  |  |  |  |  | O=C(NCCCn1cccc1)c1cc(-c2ccccc2)on1 [Compound F5937-0207] |
| 24.8% | 25.2% | 8.61 µM | 0.063 | 4.2 µM | n |  |  |  |  |  | O=C(NCC#CCN1CCCC1)c1cc(-c2ccccc2)on1 [Compound F6244-1415] |
| 211% | 234% | 10.7 µM | 0.022 | 1.07 µM | n |  |  |  |  |  | Cc1cc(OCC(=O)Nc2cc(N3CCOCC3)ncn2)cc(C)c1Cl [Compound F6257-1860] |

From paper PMC5958115, “A novel small molecule chaperone of rod opsin and its potential therapy for retinal degeneration” (Nature Communications, 2018)
